From ChEMBL document CHEMBL1201862, “PubChem BioAssay data set” (2004)
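Grown in 96-well plates, cells were treated for 48 hours with each compound at five concentrations. Insufficient inhibition: endpoint recorded as highest concentration tested. GI50: concentration for 50% inhibition of growth.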 Activity calls are given as the source filed them. Cut-off read from the data, not from the text of the source: active = GI50 up to about 1.1 µM and inactive = higher. Where a SMILES comes first, the peptide text is derived from it. [ ]: non-standard residue; d: D form. ξ: configuration not given here. ξThz(5,5-Me2) = CC1(C)SCNC1C(=O)O

Tests used:
Experiment in all cases: DTP human tumour cell line panel, 48 h
SNB-75 = tested on: SNB-75
LOX IMVI = tested on: LOX IMVI
UO-31 = tested on: UO-31
NCI/ADR-RES = tested on: NCI/ADR-RES
SN12C = tested on: SN12C
SR = tested on: SR
DU-145 = tested on: DU-145
A498 = tested on: A498
MDA-N = tested on: MDA-N
HCC 2998 = tested on: HCC 2998
SK-MEL-5 = tested on: SK-MEL-5
SF-539 = tested on: SF-539
NCI-H23 = tested on: NCI-H23
SW-620 = tested on: SW-620
SNB-19 = tested on: SNB-19
COLO 205 = tested on: COLO 205
HL-60 = tested on: HL-60
OVCAR-3 = tested on: OVCAR-3
HOP-92 = tested on: HOP-92
BT-549 = tested on: BT-549

CC[C@H](C)C1=C(OC(C)=O)[N@+]2([O-])Oc3ccc(-c4c(OC(C)=O)c(OC(C)=O)c(-c5ccc(OC(C)=O)cc5)c(OC(C)=O)c4OC(C)=O)cc3O[C@]2([C@@H](C)CC)C(=O)N1OC(C)=O
GI50 (SNB-75): 12 µM (inactive)
GI50 (LOX IMVI): 10.2 µM (inactive)
GI50 (UO-31): 21.4 µM (inactive)
GI50 (NCI/ADR-RES): 17.9 µM (inactive)
GI50 (SN12C): 17.9 µM (inactive)
GI50 (SR): 12.6 µM (inactive)
GI50 (DU-145): 16.6 µM (inactive)
GI50 (A498): 14.1 µM (inactive)
GI50 (MDA-N): 9.79 µM (inactive)
GI50 (HCC 2998): 0.00766 µM (active)
GI50 (SK-MEL-5): 10.2 µM (inactive)
GI50 (SF-539): 11.2 µM (inactive)
GI50 (NCI-H23): 15.7 µM (inactive)
GI50 (SW-620): 13 µM (inactive)
GI50 (SNB-19): 13.7 µM (inactive)
GI50 (COLO 205): 8.15 µM (inactive)
GI50 (HL-60): 10.5 µM (inactive)
GI50 (OVCAR-3): 9.29 µM (inactive)

CCCCN(CCCC)CC(O)c1cc(-c2ccc(Cl)c(Cl)c2)nc2c(Cl)cc(Cl)cc12 (stereo unspecified)
GI50 (SNB-75): > 100 µM (inactive)
GI50 (LOX IMVI): 88.1 µM (inactive)
GI50 (UO-31): 66.4 µM (inactive)
GI50 (NCI/ADR-RES): > 100 µM (inactive)
GI50 (SN12C): 47.4 µM (inactive)
GI50 (SR): 42.6 µM (inactive)
GI50 (DU-145): > 100 µM (inactive)
GI50 (A498): > 100 µM (inactive)
GI50 (MDA-N): > 100 µM (inactive)
GI50 (HCC 2998): 16.2 µM (inactive)
GI50 (SF-539): > 100 µM (inactive)
GI50 (NCI-H23): 49.5 µM (inactive)
GI50 (SW-620): 15.6 µM (inactive)
GI50 (SNB-19): > 100 µM (inactive)
GI50 (COLO 205): > 100 µM (inactive)
GI50 (HL-60): 88.3 µM (inactive)
GI50 (OVCAR-3): > 100 µM (inactive)

O=C(O)/C(Cl)=C(\Cl)C(=O)NC1C2CC3CC(C2)CC1C3 (stereo unspecified)
GI50 (SNB-75): > 100 µM (inactive)
GI50 (LOX IMVI): > 100 µM (inactive)
GI50 (UO-31): > 100 µM (inactive)
GI50 (SN12C): > 100 µM (inactive)
GI50 (SR): > 100 µM (inactive)
GI50 (A498): > 100 µM (inactive)
GI50 (HCC 2998): > 100 µM (inactive)
GI50 (SK-MEL-5): > 100 µM (inactive)
GI50 (SF-539): > 100 µM (inactive)
GI50 (HOP-92): > 100 µM (inactive)
GI50 (NCI-H23): > 100 µM (inactive)
GI50 (SW-620): > 100 µM (inactive)
GI50 (SNB-19): > 100 µM (inactive)
GI50 (COLO 205): > 100 µM (inactive)
GI50 (HL-60): > 100 µM (inactive)
GI50 (OVCAR-3): > 100 µM (inactive)

Cc1nccc2c1cnc1ccnn12
GI50 (SNB-75): > 100 µM (inactive)
GI50 (LOX IMVI): > 100 µM (inactive)
GI50 (UO-31): > 100 µM (inactive)
GI50 (SN12C): > 100 µM (inactive)
GI50 (SR): > 100 µM (inactive)
GI50 (A498): > 100 µM (inactive)
GI50 (HCC 2998): > 100 µM (inactive)
GI50 (SK-MEL-5): > 100 µM (inactive)
GI50 (SF-539): > 100 µM (inactive)
GI50 (HOP-92): > 100 µM (inactive)
GI50 (NCI-H23): > 100 µM (inactive)
GI50 (SW-620): > 100 µM (inactive)
GI50 (SNB-19): > 100 µM (inactive)
GI50 (COLO 205): > 100 µM (inactive)
GI50 (HL-60): > 100 µM (inactive)
GI50 (OVCAR-3): > 100 µM (inactive)

C=C(C)[C@@H]1CCC2=C[C@H](OC2=O)[C@@]2(C)C[C@@H]2C2=CC(C)=C(O2)[C@H]1O
GI50 (SNB-75): 35.5 µM (inactive)
GI50 (LOX IMVI): 27.1 µM (inactive)
GI50 (UO-31): 60.8 µM (inactive)
GI50 (NCI/ADR-RES): 23.6 µM (inactive)
GI50 (SN12C): 25.5 µM (inactive)
GI50 (SR): > 75 µM (inactive)
GI50 (DU-145): 37.3 µM (inactive)
GI50 (A498): > 75 µM (inactive)
GI50 (MDA-N): 23.4 µM (inactive)
GI50 (HCC 2998): > 75 µM (inactive)
GI50 (SF-539): 49.8 µM (inactive)
GI50 (HOP-92): > 75 µM (inactive)
GI50 (NCI-H23): 25.9 µM (inactive)
GI50 (SW-620): > 75 µM (inactive)
GI50 (SNB-19): > 75 µM (inactive)
GI50 (COLO 205): 33.2 µM (inactive)
GI50 (HL-60): 46.6 µM (inactive)
GI50 (OVCAR-3): 43.4 µM (inactive)

CC1SCc2nc3ccccc3n21 (stereo unspecified)
GI50 (SNB-75): 0.284 µM (active)
GI50 (LOX IMVI): > 100 µM (inactive)
GI50 (UO-31): > 100 µM (inactive)
GI50 (NCI/ADR-RES): > 100 µM (inactive)
GI50 (SN12C): > 100 µM (inactive)
GI50 (DU-145): > 100 µM (inactive)
GI50 (A498): > 100 µM (inactive)
GI50 (MDA-N): > 100 µM (inactive)
GI50 (HCC 2998): > 100 µM (inactive)
GI50 (SK-MEL-5): > 100 µM (inactive)
GI50 (SF-539): > 100 µM (inactive)
GI50 (HOP-92): > 100 µM (inactive)
GI50 (NCI-H23): > 100 µM (inactive)
GI50 (SNB-19): > 100 µM (inactive)
GI50 (COLO 205): > 100 µM (inactive)
GI50 (HL-60): > 100 µM (inactive)
GI50 (OVCAR-3): > 100 µM (inactive)

CSCC[C@H](NC(=O)[C@H](CC(C)C)NC(=O)[C@H](Cc1c[nH]cn1)NC(=O)CNC(=O)C1N(C(=O)[C@@H](C)NC(=O)[C@H](Cc2c[nH]c3ccccc23)NC(=O)[C@H](CCC(N)=O)NC(=O)[C@@H](N)CC(N)=O)CSC1(C)C)C(N)=O (stereo partly specified) (H-NQW[dA][ξThz(5,5-Me2)]GHLM-NH2)
GI50 (SNB-75): > 25 µM (inactive)
GI50 (LOX IMVI): > 25 µM (inactive)
GI50 (NCI/ADR-RES): > 25 µM (inactive)
GI50 (SN12C): > 25 µM (inactive)
GI50 (SR): > 25 µM (inactive)
GI50 (DU-145): > 25 µM (inactive)
GI50 (A498): > 25 µM (inactive)
GI50 (MDA-N): > 25 µM (inactive)
GI50 (HCC 2998): > 25 µM (inactive)
GI50 (SK-MEL-5): > 25 µM (inactive)
GI50 (SF-539): > 25 µM (inactive)
GI50 (HOP-92): > 25 µM (inactive)
GI50 (NCI-H23): > 25 µM (inactive)
GI50 (SW-620): > 25 µM (inactive)
GI50 (SNB-19): > 25 µM (inactive)
GI50 (COLO 205): > 25 µM (inactive)
GI50 (HL-60): > 25 µM (inactive)
GI50 (OVCAR-3): > 25 µM (inactive)

O=C1C2CCCC2N1Cc1ccccc1 (stereo unspecified)
GI50 (SNB-75): 49.5 µM (inactive)
GI50 (LOX IMVI): > 100 µM (inactive)
GI50 (UO-31): 15.1 µM (inactive)
GI50 (NCI/ADR-RES): > 100 µM (inactive)
GI50 (SN12C): > 100 µM (inactive)
GI50 (DU-145): > 100 µM (inactive)
GI50 (A498): > 100 µM (inactive)
GI50 (MDA-N): > 100 µM (inactive)
GI50 (HCC 2998): > 100 µM (inactive)
GI50 (SK-MEL-5): > 100 µM (inactive)
GI50 (SF-539): > 100 µM (inactive)
GI50 (HOP-92): > 100 µM (inactive)
GI50 (NCI-H23): > 100 µM (inactive)
GI50 (SW-620): > 100 µM (inactive)
GI50 (COLO 205): > 100 µM (inactive)
GI50 (HL-60): > 100 µM (inactive)
GI50 (OVCAR-3): > 100 µM (inactive)

COc1ccc(Oc2nc3c(N)cc(C(F)(F)F)cc3nc2-c2ccccc2)cc1
GI50 (SNB-75): 17.7 µM (inactive)
GI50 (LOX IMVI): 17.3 µM (inactive)
GI50 (UO-31): 60.8 µM (inactive)
GI50 (NCI/ADR-RES): 27.2 µM (inactive)
GI50 (SR): 19.9 µM (inactive)
GI50 (A498): 28.2 µM (inactive)
GI50 (HCC 2998): 38.8 µM (inactive)
GI50 (SK-MEL-5): 29.9 µM (inactive)
GI50 (BT-549): 47.1 µM (inactive)
GI50 (SF-539): 23.5 µM (inactive)
GI50 (HOP-92): 40.8 µM (inactive)
GI50 (NCI-H23): 50.9 µM (inactive)
GI50 (SW-620): 58.1 µM (inactive)
GI50 (SNB-19): 36.1 µM (inactive)
GI50 (COLO 205): 12.8 µM (inactive)
GI50 (HL-60): 59.6 µM (inactive)

C[Si](C)(C)/C=C\CCO
GI50 (SNB-75): > 100 µM (inactive)
GI50 (LOX IMVI): > 100 µM (inactive)
GI50 (UO-31): > 100 µM (inactive)
GI50 (SN12C): > 100 µM (inactive)
GI50 (SR): > 100 µM (inactive)
GI50 (A498): > 100 µM (inactive)
GI50 (HCC 2998): > 100 µM (inactive)
GI50 (SK-MEL-5): > 100 µM (inactive)
GI50 (SF-539): > 100 µM (inactive)
GI50 (HOP-92): > 100 µM (inactive)
GI50 (NCI-H23): > 100 µM (inactive)
GI50 (SW-620): > 100 µM (inactive)
GI50 (SNB-19): > 100 µM (inactive)
GI50 (COLO 205): > 100 µM (inactive)
GI50 (HL-60): > 100 µM (inactive)
GI50 (OVCAR-3): > 100 µM (inactive)

CC(=O)N(O)c1ccc(-c2nc3ccccc3s2)cc1
GI50 (SNB-75): 33 µM (inactive)
GI50 (LOX IMVI): 63.4 µM (inactive)
GI50 (UO-31): 46 µM (inactive)
GI50 (NCI/ADR-RES): 28.4 µM (inactive)
GI50 (SN12C): > 100 µM (inactive)
GI50 (SR): > 100 µM (inactive)
GI50 (DU-145): > 100 µM (inactive)
GI50 (A498): 35.6 µM (inactive)
GI50 (MDA-N): 77.6 µM (inactive)
GI50 (HCC 2998): 61.9 µM (inactive)
GI50 (SK-MEL-5): 39.2 µM (inactive)
GI50 (HOP-92): 64.4 µM (inactive)
GI50 (NCI-H23): > 100 µM (inactive)
GI50 (SW-620): > 100 µM (inactive)
GI50 (SNB-19): 60 µM (inactive)
GI50 (COLO 205): > 100 µM (inactive)
GI50 (OVCAR-3): 52.2 µM (inactive)
